Columns and labels:
[1] = Cytotoxicity against human Caki1 cells assessed as cell growth at 10^-8 M after 24 hrs by SRB assay; type: functional; conditions: CAKI-1, 24 h, read-out: Activity
T47D = assay: Cytotoxicity against human T47D cells assessed as cell growth at 10^-8 M after 24 hrs by SRB assay; type: functional; conditions: read-out: Activity
NCI-H23 = assay: Cytotoxicity against human NCI-H23 cells assessed as cell growth at 10^-7 M after 24 hrs by SRB assay; type: functional; conditions: NCI-H23, 24 h, read-out: Activity
[2] = Cytotoxicity against human SKOV3 cells assessed as cell growth at 10^-7 M after 24 hrs by SRB assay; type: functional; conditions: SK-OV-3, 24 h, read-out: Activity
[3] = Cytotoxicity against human HOP92 cells after 24 hrs by SRB assay; type: functional, cell-based; conditions: HOP-92, 24 h
[4] = Cytotoxicity against human SNB19 cells assessed as cell growth at 10^-4 M after 24 hrs by SRB assay; type: functional; conditions: SNB-19, 24 h, read-out: Activity
[5] = Cytotoxicity against human LOXIMVI cells assessed as cell growth at 10^-4 M after 24 hrs by SRB assay; type: functional; conditions: LOX IMVI, read-out: Activity
M14 [6] = assay: Cytotoxicity against human M14 cells after 24 hrs by SRB assay; type: functional, cell-based; conditions: M14, 24 h
EKVX = assay: Cytotoxicity against human EKVX cells assessed as cell growth at 10^-6 M after 24 hrs by SRB assay; type: functional; conditions: read-out: Activity
SK-MEL-5 = assay: Cytotoxicity against human SK-MEL-5 cells assessed as cell growth at 10^-4 M after 24 hrs by SRB assay; type: functional; conditions: SK-MEL-5, 24 h, read-out: Activity
[7] = Cytotoxicity against human IGROV1 cells assessed as cell growth at 10^-4 M after 24 hrs by SRB assay; type: functional; conditions: IGROV-1, 24 h, read-out: Activity
786-0 = assay: Cytotoxicity against human 786-0 cells assessed as cell growth at 10^-4 M after 24 hrs by SRB assay; type: functional; conditions: 786-0, 24 h, read-out: Activity
A498 = assay: Cytotoxicity against human A498 cells assessed as cell growth at 10^-4 M after 24 hrs by SRB assay; type: functional; conditions: A498, 24 h, read-out: Activity
NCI-H522 = assay: Cytotoxicity against human NCI-H522 cells assessed as cell growth at 10^-6 M after 24 hrs by SRB assay; type: functional; conditions: NCI-H522, 24 h, read-out: Activity
SN12C = assay: Cytotoxicity against human SN12C cells assessed as cell growth at 10^-6 M after 24 hrs by SRB assay; type: functional; conditions: read-out: Activity
[8] = Cytotoxicity against human UACC257 cells after 24 hrs by SRB assay; type: functional; conditions: UACC-257, 24 h
[9] = Cytotoxicity against human IGROV1 cells after 24 hrs by SRB assay; type: functional; conditions: IGROV-1, 24 h
[10] = Cytotoxicity against human OVCAR4 cells after 24 hrs by SRB assay; type: functional; conditions: OVCAR-4, 24 h
ACHN [11] = assay: Cytotoxicity against human ACHN cells after 24 hrs by SRB assay; type: functional
A549 = assay: Cytotoxicity against human A549 cells assessed as cell growth at 10^-8 M after 24 hrs by SRB assay; type: functional; conditions: A549, 24 h, read-out: Activity
MDA-MB-435 = assay: Cytotoxicity against human MDA-MB-435 cells assessed as cell growth at 10^-8 M after 24 hrs by SRB assay; type: functional; conditions: MDA-MB-435, 24 h, read-out: Activity
SK-MEL-2 [12] = assay: Cytotoxicity against human SK-MEL-2 cells assessed as cell growth at 10^-8 M after 24 hrs by SRB assay; type: functional; conditions: SK-MEL-2, 24 h, read-out: Activity
[13] = Cytotoxicity against human UACC257 cells assessed as cell growth at 10^-8 M after 24 hrs by SRB assay; type: functional; conditions: UACC-257, 24 h, read-out: Activity
[14] = Cytotoxicity against human HCT116 cells assessed as cell growth at 10^-5 M after 24 hrs by SRB assay; type: functional; conditions: HCT-116, 24 h, read-out: Activity
[15] = Cytotoxicity against human SF268 cells assessed as cell growth at 10^-5 M after 24 hrs by SRB assay; type: functional; conditions: SF-268, 24 h, read-out: Activity
U-251 = assay: Cytotoxicity against human U251 cells assessed as cell growth at 10^-5 M after 24 hrs by SRB assay; type: functional; conditions: U-251, 24 h, read-out: Activity
M14 [16] = assay: Cytotoxicity against human M14 cells assessed as cell growth at 10^-5 M after 24 hrs by SRB assay; type: functional; conditions: M14, 24 h, read-out: Activity
[17] = Cytotoxicity against human UACC62 cells assessed as cell growth at 10^-5 M after 24 hrs by SRB assay; type: functional; conditions: UACC-62, 24 h, read-out: Activity
[18] = Cytotoxicity against human OVCAR3 cells assessed as cell growth at 10^-5 M after 24 hrs by SRB assay; type: functional; conditions: OVCAR-3, 24 h, read-out: Activity
[19] = Cytotoxicity against human OVCAR4 cells assessed as cell growth at 10^-5 M after 24 hrs by SRB assay; type: functional; conditions: OVCAR-4, 24 h, read-out: Activity
[20] = Cytotoxicity against human OVCAR5 cells assessed as cell growth at 10^-5 M after 24 hrs by SRB assay; type: functional; conditions: OVCAR-5, 24 h, read-out: Activity
ACHN [21] = assay: Cytotoxicity against human ACHN cells assessed as cell growth at 10^-5 M after 24 hrs by SRB assay; type: functional; conditions: read-out: Activity
[22] = Cytotoxicity against human DU145 cells assessed as cell growth at 10^-5 M after 24 hrs by SRB assay; type: functional; conditions: DU-145, 24 h, read-out: Activity
SK-MEL-2 [23] = assay: Cytotoxicity against human SK-MEL-2 cells assessed as growth inhibition at 10 uM after 24 hrs by SRB assay; type: functional; conditions: SK-MEL-2, 24 h, read-out: GI
[24] = read-out: LC50 (the source's name)
[25] = read-out: pLC50 (the source's name) (converted)

SMILES: O=C(Nc1cc(-c2cccnc2)nc(NCCCN2CCOCC2)n1)c1cc(Br)cc(C(F)(F)F)c1
- growth at 0.01 µM [1]: 99%
- growth at 0.01 µM (T47D): 91%
- growth at 0.1 µM (NCI-H23): 98%
- growth at 0.1 µM [2]: 93%
- IC50 [3]: 1.97 µM
- GI50 ([3]; read-out: GI50): 1.97 µM
- CC50 [3, 24]: 29.9 µM
- TGI ([3]; read-out: TGI): 7.62 µM
- GI50 ([3]; read-out: pGI50 (converted)): 1.95 µM
- CC50 [3, 25]: 30.2 µM
- TGI ([3]; read-out: pTGI (converted)): 7.59 µM
- growth at 100 µM [4]: -84%
- growth at 100 µM [5]: -93%
- GI50 (M14 [6]): 1.66 µM
- CC50 (M14 [6]; [24]): 6.59 µM
- TGI (M14 [6]; read-out: TGI): 3.32 µM
- CC50 (M14 [6]; [25]): 6.61 µM
- TGI (M14 [6]; read-out: pTGI (converted)): 3.31 µM
- growth at 1 µM (EKVX): 76%
- growth at 100 µM (SK-MEL-5): -100%
- growth at 100 µM [7]: -72%
- growth at 100 µM (786-0): -87%
- growth at 100 µM (A498): -91%
- growth at 1 µM (NCI-H522): 83%
- growth at 1 µM (SN12C): 101%
- GI50 ([8]; read-out: GI50): 2.1 µM
- CC50 [8, 24]: 6.8 µM
- TGI ([8]; read-out: TGI): 3.78 µM
- GI50 ([8]; read-out: pGI50 (converted)): 2.09 µM
- CC50 [8, 25]: 6.76 µM
- TGI ([8]; read-out: pTGI (converted)): 3.8 µM
- GI50 ([9]; read-out: GI50): 4.67 µM
- CC50 [9, 24]: 60.5 µM
- TGI ([9]; read-out: TGI): 19.5 µM
- GI50 ([9]; read-out: pGI50 (converted)): 4.68 µM
- CC50 [9, 25]: 60.3 µM
- TGI ([9]; read-out: pTGI (converted)): 19.5 µM
- GI50 ([10]; read-out: GI50): 3.26 µM
- CC50 [10, 24]: 39.9 µM
- TGI ([10]; read-out: TGI): 14.5 µM
- GI50 ([10]; read-out: pGI50 (converted)): 3.24 µM
- CC50 [10, 25]: 39.8 µM
- TGI ([10]; read-out: pTGI (converted)): 14.5 µM
- GI50 (ACHN [11]; read-out: GI50): 3.04 µM
- CC50 (ACHN [11]; [24]): 44.6 µM
- TGI (ACHN [11]; read-out: TGI): 11.3 µM
- GI50 (ACHN [11]; read-out: pGI50 (converted)): 3.02 µM
- CC50 (ACHN [11]; [25]): 44.7 µM
- TGI (ACHN [11]; read-out: pTGI (converted)): 11.2 µM
- growth at 0.01 µM (A549): 110%
- growth at 0.01 µM (MDA-MB-435): 96%
- growth at 0.01 µM (SK-MEL-2 [12]): 109%
- growth at 0.01 µM [13]: 92%
- growth at 10 µM [14]: -44%
- growth at 10 µM [15]: 1%
- growth at 10 µM (U-251): -57%
- growth at 10 µM (M14 [16]): -80%
- growth at 10 µM [17]: -50%
- growth at 10 µM [18]: 12%
- growth at 10 µM [19]: 18%
- growth at 10 µM [20]: 40%
- growth at 10 µM (ACHN [21]): 5%
- growth at 10 µM [22]: 39%

SMILES: COCCCNc1nc(NC(=O)c2cc(OC)cc(OC)c2)cc(-c2cccnc2)n1
- inhibition of growth at 10 µM (SK-MEL-2 [23]): 21.2%
